Assay results from US20050043315A1, “Aminopyrimidine compounds, processes for their preparation and pharmaceutical compositions containing them” (priority 2002, published 2005).

Assays:
human A1 receptor = target: T1, human A1 receptor (Homo sapiens, UniProt P30542); test: Adenosine antagonistic activity, radioligand binding with [3H]DPCPX; conditions: [3H]DPCPX 4.5 nM
T1 sequence (P30542 1-326): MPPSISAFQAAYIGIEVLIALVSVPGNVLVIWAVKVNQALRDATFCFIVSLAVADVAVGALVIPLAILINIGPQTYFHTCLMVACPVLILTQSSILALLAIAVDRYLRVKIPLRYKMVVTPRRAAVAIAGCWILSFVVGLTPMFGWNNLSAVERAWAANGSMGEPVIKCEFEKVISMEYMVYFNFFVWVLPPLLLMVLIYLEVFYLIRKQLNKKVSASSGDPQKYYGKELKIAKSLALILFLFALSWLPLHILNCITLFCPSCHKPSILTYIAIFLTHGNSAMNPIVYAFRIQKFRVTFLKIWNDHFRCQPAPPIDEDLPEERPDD
Protocol: (§1) The adenosine antagonistic activity [Ki(nM)] of the test compound was examined by radioligand binding techniques using 8-cyclopentyl-1,3-dipropylxanthine, [dipropyl-2,3-^3H(N)] ([^3H]DPCPX, 4.5 nM) for human A1 receptor and [^3H]CGS 21680 (20 nM) for human A2a receptor.

ddY mice = test: Anticatalepsy activity in mouse (haloperidol-induced catalepsy); type: in vivo; conditions: 3.2 mg/kg orally, ddY mice n=7; haloperidol 0.32 mg/kg i.p. 30 min after compound; measured 30 min after injection
Protocol: The test compound (3.2 mg/kg) was administered orally with ddY mice(n=7). Then, haloperidol (0.32 mg/kg) was injected intraperitoneally 30 min. after the administration of the compound. Thirty min. after the injection, the cataleptic responses of mice were measured. The forelimbs of each mouse were placed on a 3 cm high, 3 mm wide horizontal bar, and the duration of cataleptic posture was measured for up to 30 sec.

human A2a receptor = human A2a receptor (Homo sapiens, UniProt P29274); test: Adenosine antagonistic activity, radioligand binding with [3H]CGS 21680; conditions: [3H]CGS 21680 20 nM
Protocol: as §1

Chain of human A2a receptor (P29274 whole entry): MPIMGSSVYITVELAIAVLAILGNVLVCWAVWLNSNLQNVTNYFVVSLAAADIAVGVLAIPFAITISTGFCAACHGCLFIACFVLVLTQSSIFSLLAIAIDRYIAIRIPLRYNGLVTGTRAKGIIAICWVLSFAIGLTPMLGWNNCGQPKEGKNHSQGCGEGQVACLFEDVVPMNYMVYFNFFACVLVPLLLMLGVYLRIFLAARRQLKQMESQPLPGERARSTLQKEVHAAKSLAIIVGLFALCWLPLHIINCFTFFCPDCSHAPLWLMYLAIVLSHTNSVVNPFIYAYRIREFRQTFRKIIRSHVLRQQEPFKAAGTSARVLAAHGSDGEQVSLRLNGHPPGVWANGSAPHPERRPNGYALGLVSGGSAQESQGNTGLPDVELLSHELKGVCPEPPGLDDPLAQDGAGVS

| Structure (SMILES) | melting point [°C] | Ki (human A1 receptor) [nM] | Ki (human A2a receptor) [nM] | Manifestation rate of catalepsy (number of mouse) (ddY mice) |
| --- | --- | --- | --- | --- |
| Nc1ncc(-c2ccc(=O)[nH]n2)c(-c2ccccc2)n1 [Example 1, 6-(2-Amino-4-phenyl-5-pyrimidinyl)-3(2H)-pyridazinone] | > 280 | 11.3 | 3.85 | 4/7 |
| CCn1nc(-c2cnc(N)nc2-c2ccccc2)ccc1=O [Example 4, 6-(2-Amino-4-phenyl-5-pyrimidinyl)-2-ethyl-3(2H)-pyridazinone] | 255 to 256 | 3.14 | 4.35 | 0/7 |
| CC(C)n1nc(-c2c(F)nc(N)nc2-c2ccccc2)ccc1=O [Example 136, 6-(2-Amino-4-fluoro-6-phenyl-5-pyrimidinyl)-2-isopropyl-3(2H)-pyridazinone] | 231 to 232.5 | 1.75 | 1.41 | 0/7 |
| CC(C)n1nc(-c2cnc(NCc3ccccn3)nc2-c2ccccc2)ccc1=O [Example 18, 2-Isopropyl-6-{4-phenyl-2-[(2-pyridinylmethyl)amino]-5-pyrimidinyl}-3(2H)-pyridazinone] | 143 to 144.5 | 10.8 | 7.38 | 0/7 |
| CC(=O)Nc1ncc(-c2ccc(=O)n(C(C)C)n2)c(-c2ccccc2)n1 [Example 7, N-[5-(1-Isopropyl-6-oxo-1,6-dihydro-3-pyridazinyl)-4-phenyl-2-pyrimidinyl]acetamide] | 209 to 210 | 6.47 | 2.09 | 0/7 |
| CC(C)n1nc(-c2cnc(N)nc2-c2ccco2)ccc1=O [Example 47, 6-[2-Amino-4-(2-furyl)-5-pyrimidinyl]-2-isopropyl-3(2H)-pyridazinone] | 215 | 7.74 | 1.38 | 1/7 |
| Cn1nc(-c2cnc(N)nc2-c2ccco2)ccc1=O [Example 64, 6-[2-Amino-4-(2-furyl)-5-pyrimidinyl]-2-methyl-3(2H)-pyridazinone] | 234 | – | – | – |
| Cn1nc(-c2cnc(N)nc2-c2cccc(F)c2)ccc1=O [Example 62, 6-[2-Amino-4-(3-fluorophenyl)-5-pyrimidinyl]-2-methyl-3(2H)-pyridazinone] | 212.5 | – | – | – |
| CC(C)n1nc(-c2cnc(N)nc2-c2ccc(OCCN3CCOCC3)cc2)ccc1=O [Example 220, 6-(2-Amino-4-{4-[2-(4-morpholinyl)ethoxy]phenyl}-5-pyrimidinyl)-2-isopropyl-3(2H)-pyridazinone] | 161 | – | – | – |
| CC(C)n1nc(-c2c(OC3CCCCC3)nc(N)nc2-c2ccccc2)ccc1=O [Example 96, 6-[2-Amino-4-(cyclohexyloxy)-6-phenyl-5-pyrimidinyl]-2-isopropyl-3(2H)-pyridazinone] | 173 to 175 | – | – | – |
| CC(C)Oc1cccc(-c2nc(N)ncc2-c2ccc(=O)n(C(C)C)n2)c1 [Example 196, 6-[2-Amino-4-(3-isopropoxyphenyl)-5-pyrimidinyl]-2-isopropyl-3(2H)-pyridazinone] | 143 | – | – | – |

Second part, led by results:

| melting point [°C] | Ki (human A1 receptor) [nM] | Ki (human A2a receptor) [nM] | Structure (SMILES) | Manifestation rate of catalepsy (number of mouse) (ddY mice) |
| --- | --- | --- | --- | --- |
| 147 | 2.36 | 1.7 | COCCOc1ccc(-c2nc(N)ncc2-c2ccc(=O)n(C(C)C)n2)cc1 [Example 212, 6-{2-Amino-4-[4-(2-methoxyethoxy)phenyl]-5-pyrimidinyl}-2-isopropyl-3(2H)-pyridazinone] | 0/7 |
| 143 to 147 | – | – | CC(C)n1nc(-c2cnc(NC(=O)C3CC3)nc2-c2ccccc2)ccc1=O [Example 167, N-[5-(1-isopropyl-6-oxo-1,6-dihydro-3-pyridazinyl)-4-phenyl-2-pyrimidinyl]cyclopropanecarboxamide] | – |
| 195 | – | – | COc1cccc(-c2nc(N)ncc2-c2ccc(=O)n(C)n2)c1 [Example 73, 6-[2-Amino-4-(3-methoxyphenyl)-5-pyrimidinyl]-2-methyl-3(2H)-pyridazinone] | – |
| 230 | – | – | Cc1ccc(-c2nc(N)ncc2-c2ccc(=O)n(C)n2)cc1 [Example 65, 6-[2-Amino-4-(4-methylphenyl)-5-pyrimidinyl]-2-methyl-3(2H)-pyridazinone] | – |
| 270 | – | – | Cn1nc(-c2cnc(N)nc2-c2cccs2)ccc1=O [Example 69, 6-[2-Amino-4-(2-thienyl)-5-pyrimidinyl]-2-methyl-3(2H)-pyridazinone] | – |
| 176 | – | – | CC(C)n1nc(-c2cnc(N)nc2-c2ccc(Cl)c(Cl)c2)ccc1=O [Example 50, 6-[2-Amino-4-(3,4-dichlorophenyl)-5-pyrimidinyl]-2-isopropyl-3(2H)-pyridazinone] | – |
| 250 | – | – | COc1ccc(-c2nc(N)ncc2-c2ccc(=O)[nH]n2)cc1F [Example 29, 6-[2-Amino-4-(3-fluoro-4-methoxyphenyl)-5-pyrimidinyl]-3(2H)-pyridazinone] | – |
| 241 | – | – | Cn1nc(-c2cnc(N)nc2-c2ccoc2)ccc1=O [Example 244, 6-[2-Amino-4-(3-furyl)-5-pyrimidinyl]-2-methyl-3(2H)-pyridazinone] | – |
| 313 | – | – | Cc1ccccc1-c1nc(N)ncc1-c1ccc(=O)[nH]n1 [Example 39, 6-[2-Amino-4-(2-methylphenyl)-5-pyrimidinyl]-3(2H)-pyridazinone] | – |
| 212 | – | – | Cc1cccc(C)c1-c1nc(N)ncc1-c1ccc(=O)n(C(C)C)n1 [Example 240, 6-[2-Amino-4-(2,6-dimethylphenyl)-5-pyrimidinyl]-2-isopropyl-3(2H)-pyridazinone] | – |
